The subject of data set [1] is cryopreserved human hepatocytes (primary culture). The data set is described as follows: Hepatocyte viability (MTT test) on suspended cryopreserved human hepatocytes. The data set is classed as cell-based. As to conditions: 90 minutes incubation, relative to non treated cells. How it is done:
The hepatocyte viability corresponds to the percentage of surviving suspended human hepatocytes after 90 minutes of incubation with the compounds of the invention present at a concentration of […].
Hepatocyte viability was measured for different compounds according to the invention with cryopreserved human hepatocytes (primary culture) suspended and distributed in 96-well plates with a density of 0.1×10^6 cells per well, in a […] culture medium per well (DMEM+gentamycin (50 mg/L)+insulin (4 mg/L)+dexamethasone (1 μM)) in a CO2/air (5%/95%) humidified atmosphere at 37° C. After 30 minutes for attaining equilibrium, […] of culture medium containing the tested compounds (dissolved in DMSO) or of medium only containing DMSO (final concentration of 0.1%) were added with stirring at 900 rpm.
Cytotoxicity is evaluated with an MTT (Thiazolyl Blue Tetrazolium Bromide) test. The tested compounds or the DMSO are left to incubate for 90 minutes, and then 10 μL of MTT at 10 mg/10 mL are added per well for 30 mins. Next, the plates are centrifuged for 10 minutes at 2,000 g, the MTT is removed and some DMSO is added in an amount of 100 μL per well. The plates are gently shaked and then absorbance is measured at 595 nm by means of a spectrophotometric reader of micro-plates. The hepatocyte viability measured here corresponds to the percentage of surviving hepatocytes after 90 minutes of incubation with the compounds tested at a concentration of 100 μM, relatively to non treated cells.
The same tests were conducted for a concentration of compounds at 200 μM.
The tests were conducted in two distinct campaigns. In both cases, troglitazone (K) was used as a reference molecule.
Background: Tetrazolium dyes change colour on reduction, which living cells bring about.

A short description of data set [2]: Toxicity test on mice (maximum tolerated dose, intravenous injection). To be noted: mouse, in vivo; female NMRI mice, intravenous injection into the tail vein, observed two weeks. How it is done:
(§1) A toxicity test was conducted on mice for the molecules D and E. These molecules therefore only differ by the substituted methyl group on thiazolidinedione. As a comparison, the test was also conducted by using Δ2TGZ. These analyses were conducted on female NMRI mice weighing 20-25 g. Groups of three mice were set up: a non-injected control batch, a batch receiving the solvent of the molecules to be tested (water PPI, polyethylene glycol 400, absolute ethanol mixture in proportions 5/3/2), three other batches receiving the molecules to be tested. The compounds were injected into the tail vein of mice anaesthetized beforehand. The animals were weighed before and then 24 hours and 48 hours after intravenous injection of the products at the different tested doses and then they were also weighed three times a week for two weeks. The behavior of the whole of the mice was observed before, and then one hour, two hours and three hours after the intravenous injection and then daily for two weeks. The compounds were first tested at the limit of their solubility.

The subject of another data set is MCF7. The data set is described as follows: Antiproliferative activity (MTS) on MCF7. The data set is classed as cell-based, human. As to conditions: for inhibition at 10 µM / IC50: Homo sapiens, MCF7, 72 hours; for inhibition at 10 µM: 10^-5 M, triplicate, read-out: percentage of inhibition of cell growth, MCF7; for IC50: averages of two independent values. How it is done:
(§2) Antiproliferative activity was measured for different compounds according to the invention by analysis of cytoxicity at 10^−5M on diverse cancer cell lines in DMSO in triplicate. For certain molecules and certain lines, the same procedure was used for determining the IC50 values (the required concentration in μM for inhibiting by half the proliferation of the cells), by conducting cytotoxicity tests at concentrations from 0.005 μM to 100 μM in duplicate. The procedure is the following. The cells of the relevant line are sown in the suitable medium (see Table III) added with L-glutamine, with 10% (v/v) of fetal calf serum, 100 IU of penicillin, 100 μg/mL of streptomycin and 1.5 μg/mL of fungizone and maintained under 5% of CO2 at 37° C. 96-well plates are sown with the required number of cells per well (see Table III) in 200 μL of medium. 24 hours later, the chemical compounds to be investigated, dissolved in DMSO, are added and the media are maintained for 72 hours under these conditions with a set final concentration in DMSO (1%). The controls received an equal volume of DMSO. The number of viable cells is measured at 490 nm with the MTS reagent (Promega, Madison Wis.). The IC50s are calculated as the concentrations of compounds inducing 50% inhibition of cell proliferation.
(§3) Tables IV and V below indicate the percentage of inhibition of cell growth, i.e. the percentage of dead cells after treatment with a compound dose of 10^−5 M. The tests were conducted in triplicate.

For another data set, the system named is HCT116. The experiment in a line: Antiproliferative activity (MTS) on HCT116. The data set is classed as cell-based. As to conditions: Homo sapiens, HCT-116; 10^-5 M, 72 hours, triplicate; read-out: percentage of inhibition of cell growth, HCT116. The protocol:
as §2, §3

The subject of another data set is MDA231. The experiment in a line: Antiproliferative activity (MTS) on MDA231. The data set is classed as cell-based, human. To be noted: for inhibition at 10 µM / IC50: Homo sapiens, MDA-MB-231, 72 hours; for inhibition at 10 µM: 10^-5 M, triplicate, read-out: percentage of inhibition of cell growth, MDA231; for IC50: averages of two independent values. The protocol:
as §2, §3

The subject of the next data set is MDA435. The experiment in a line: Antiproliferative activity (MTS) on MDA435. To be noted: Homo sapiens, 10^-5 M, 72 hours, triplicate, read-out: percentage of inhibition of cell growth, MDA435. The data set is classed as cell-based. How it is done:
as §2, §3

For another data set, the system named is Mia-PaCa. The data set is described as follows: Antiproliferative activity (MTS) on Mia-PaCa. As to conditions: Homo sapiens, MIA PaCa-2, 72 hours; for inhibition at 10 µM: 10^-5 M, triplicate, read-out: percentage of inhibition of cell growth, Mia-PaCa; for IC50: averages of two independent values. The data set is classed as cell-based. The protocol:
as §2, §3

The test system of the next data set is HepG2. The experiment in a line: Antiproliferative activity (MTS) on HepG2. The data set is classed as cell-based. To be noted: Homo sapiens, 72 hours; for inhibition at 10 µM: 10^-5 M, triplicate, read-out: percentage of inhibition of cell growth, HepG2; for IC50: averages of two independent values. How it is done:
as §2, §3

The subject of a further data set is PC3. The experiment in a line: Antiproliferative activity (MTS) on PC3. The data set is classed as cell-based. As to conditions: Homo sapiens, PC-3; 10^-5 M, 72 hours, triplicate; read-out: percentage of inhibition of cell growth, PC3. How it is done:
as §2, §3

In the next data set the test system is LNCaP. The experiment in a line: Antiproliferative activity (MTS) on LNCaP. To be noted: Homo sapiens, 72 hours; for inhibition at 10 µM: 10^-5 M, triplicate, read-out: percentage of inhibition of cell growth, LNCaP; for IC50: averages of two independent values. The data set is classed as cell-based. How it is done: as §2, §3
A further data set has as its system female NMRI mice. The data set is described as follows: Toxicity test on mice (maximum tolerated dose, intravenous injection). To be noted: mouse, in vivo, iv. How it is done:
as §1

We go through five molecules from US9522909B2, “Thiazolidinedione derivatives, preparation thereof and use thereof in cancer treatment” (UNIVERSITE DE LORRAINE, priority 2012, dated 2016).

Structures can show the parent of a compound that is named as a salt.

Turning to `Cc1c(C)c2c(c(C)c1CCCCCCN)CCC(C)(COc1ccc(/C=C3\SC(=O)NC3=O)cc1)O2` (racemic) [E, (±) 5-{4-[6-(6-amino-hexyl)-2,5,7,8-tetramethyl-chroman-2-ylmethoxy]-benzylidene}thiazolidine-2,4-dione trifluoroacetate], the “Hepatocyte viability % (100 μM)” value in data set [1] (Table I campaign) came out at 83%. Moreover, the “Hepatocyte viability % (200 μM)” value in [1] (Table I campaign) came to 80%. In data set [2], this molecule registered an MTD at 2 weeks of 34 mg/kg. In addition, the inhibition at 10 µM with MCF7 stood at 97%; in the data set on HCT116, 93%; with MDA231, 92%; with MDA435 it was 65%; in the data set on Mia-PaCa, 94%; in the data set with HepG2, 87%. Also, the figures for the inhibition at 10 µM in the data set on PC3 and in the data set with LNCaP were 40% and 53%, respectively. In addition, the IC50 in the data set on MCF7 came to 6.4 µM; in the data set with MDA231, 4.7 µM; with Mia-PaCa, 3.9 µM; in the data set with HepG2 it was 3.1 µM; with LNCaP, 5.1 µM.

In the case of `Cc1c(C)c2c(c(C)c1CCCCCCN)CCC(C)(COc1ccc(/C=C3\SC(=O)N(C)C3=O)cc1)O2` (racemic) [D, (±) 5-{4-[6-(6-amino-hexyl)-2,5,7,8-tetramethyl-chroman-2-ylmethoxy]-benzylidene}-3-methyl-thiazolidine-2,4-dione trifluoroacetate], the “Hepatocyte viability % (100 μM)” value in data set [1] (Table I campaign) worked out at 83%. In data set [1] (Table I campaign), the “Hepatocyte viability % (200 μM)” value is recorded as 83%. In [2], this molecule returned a maximal tolerated dose (MTD) at 2 weeks of 65.5 mg/kg. For the same molecule, the inhibition at 10 µM in the data set on MCF7 is 101%; in the data set with HCT116, 101%; in the data set with MDA231, 101%; in the data set on MDA435, 101%; in the data set with Mia-PaCa it was 103%; with HepG2, 100%. For the same molecule, the inhibition at 10 µM stood at 92% in the data set with PC3 and 88% with LNCaP. Besides, the IC50 in the data set on MCF7 stood at 6.9 µM; in the data set on MDA231, 4.6 µM; in the data set with Mia-PaCa, 3.2 µM; with HepG2, 7.9 µM; with LNCaP, 6.5 µM.

As for `Cc1c(C)c2c(c(C)c1O)CCC(C)(COc1ccc(C=C3SC(=O)NC3=O)cc1)O2` (centres unmarked) [Δ2TGZ, reference compound], the maximum tolerated dose result in the data set on female NMRI mice is listed as “less than 34 mg/kg”.

Turning to `Cc1c(C)c2c(c(C)c1O)CCC(C)(COc1ccc(/C=C3\SC(=O)N(C)C3=O)cc1)O2` (racemic) [J, (±) 5-[4-(6-Hydroxy-2,5,7,8-tetramethyl-chroman-2-ylmethoxy)-benzylidene]-3-methyl-thiazolidine-2,4-dione], the “Hepatocyte viability % (100 μM)” value in data set [1] (Table II campaign) amounted to 120%. Further, in data set [1] (Table II campaign), the “Hepatocyte viability % (200 μM)” value is 120%. In addition, the “activity on hormono-dependent breast cancer cells (MCF-7), in words” value in the data set with MCF7 was “inactive”. The inhibition at 10 µM was found to be 0% in the data set with MCF7; 32% in the data set on HCT116; 36% with MDA231; 5% in the data set with MDA435; 20% in the data set with Mia-PaCa; 40% in the data set with HepG2. For the same molecule, the inhibition at 10 µM in the data set on PC3 worked out at 14%; in the data set on LNCaP, 33%. The IC50 with MCF7 amounted to 52.6 µM; in the data set with MDA231, 4.9 µM; in the data set on Mia-PaCa, 24.5 µM; in the data set with HepG2 it was 20.4 µM; with LNCaP, 17.4 µM. Besides, the “activity on non-hormono-dependent breast cancer cells (MDA-231), in words” value in the data set on MDA231 is “active”.

For the molecule `Cc1c(C)c2c(c(C)c1O)CCC(C)(COc1ccc(CC3SC(=O)NC3=O)cc1)O2` (centres unmarked) [K, troglitazone, reference compound], the entries for the “Hepatocyte viability % (100 μM)” value in [1] (Table I campaign) and in data set [1] (Table II campaign) were 79% and 52%, respectively. Moreover, the “Hepatocyte viability % (200 μM)” value in data set [1] (Table I campaign) amounted to 30%; in data set [1] (Table II campaign) it was 22%. The inhibition at 10 µM stood at 3% with MCF7; 9% in the data set on HCT116; 12% in the data set with MDA231; 12% in the data set with MDA435; 2% in the data set on Mia-PaCa; 14% with HepG2. For the same molecule, the inhibition at 10 µM amounted to 14% in the data set with PC3 and 17% in the data set with LNCaP.

The term MTD denotes the highest dose tested that stayed within the study's limit of toxicity. Low values mean poorer tolerability, high ones better tolerability. For orientation: inhibition means the relative decrease from the control value, in per cent. What is called IC50 is the concentration that gives 50% inhibition.
